“And” between values parts separate entries of the source, which are not always exact repeats. Equal values may be shown once.
Experiments:
[1] = tested on: HEK293-CCK2i4svR and wtHEK293 xenografts; assay: SPECT/CT of HEK293-CCK2i4svR and wtHEK293 xenografts; format: in vivo, mice; conditions: 4 h and 24 h pi
Description: For SPECT/CT imaging, six mice bearing twin HEK293-CCK2i4svR and wtHEK293 tumors were injected in the tail vein with a bolus containing [^111In]In-GAS1/2/3 (100 μL, 9–12 MBq associated with 3 nmol total injected analog in-vehicle: saline/EtOH 9/1 v/v). Mice were euthanized at 4 h and 24 h pi. Tomographic SPECT/CT imaging was performed with the y-CUBE/x-CUBE systems (Molecubes, Belgium). The SPECT system is based on monolithic NaI detectors attached to SiPMs, with a 0.6 mm intrinsic resolution. The CT system is based on a structured CMOS detector of CsI with pixels of 75 µm and operates between 35–80 kVp, 10–500 µA tube current, with a 33 µm fixed focal spot size. SPECT scans were acquired 4 h pi and 24 h pi, with a 40–50 min duration protocol based on the injected activity, and each SPECT scan was succeeded by a CT scan, following General-Purpose protocol under 50 kVp, for co-registration purposes. SPECT images were reconstructed using the MLEM reconstruction method with a 250 µm voxel size and 500 iterations. CT images were reconstructed using the ISRA reconstruction method with a 100 µm voxel size.
Images were exported and post-processed on VivoQuant software, version 4.0 (Invicro, Boston). A smoothing median filter (0.6 mm, spherical window) was applied to the images, and the bladder was removed for consistency purposes. Normalization of images was performed (i.e., all images having the same color scale range values) to achieve a direct visual comparison between the different groups.

[2] = Radioligand stability in mice (radio-HPLC of blood and urine); format: in vivo; conditions: mice blood collected 5 min pi; mean ± SD
Outline: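 Male Swiss albino mice (n=3) given 2.5–3 nmol radioligand i.v. via tail vein in saline/EtOH 9/1. Blood at 5 min and urine at 30 min pi, EDTA-treated on ice, MeCN-deproteinised, analysed by radio-RP-HPLC; value is mean percent intact radioligand ± SD.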

[3] = tested on: SCID mice bearing twin HEK293-CCK2i4svR and wtHEK293 tumors; assay: Biodistribution in SCID mice bearing twin HEK293-CCK2i4svR and wtHEK293 xenografts; format: in vivo
Outline: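 Uptake is expressed as %IA/g (mean ± SD, n = 4) from gamma counting of blood, organs and tumours collected at set times: 1, 4 and 24 h pi for ^67Ga, 4 and 24 h for ^111In (±gelofusine), 4–96 h for ^177Lu. Radioligands were given iv at 7–40 pmol to SCID mice bearing twin CCK2i4svR-transfected and wild-type HEK293 xenografts.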

[4] = 4 h + Gelo (Gelofusine-treated mice)
[5] = 24 h + Gelo (Gelofusine-treated mice)

- SPECT/CT uptake in CCK2i4svR expressing tumors [1]: Intense uptake
- SPECT/CT uptake in wtHEK293 tumors devoid of CCK2i4svR expression [1]: no uptake is evident
- Biodistribution, Blood [3, 4]: 6.29 ± 1.08 %IA/g
- Biodistribution, CCK2i4svR(+) Tumor [3, 4]: 7.67 ± 0.61 %IA/g
- Biodistribution, CCK2i4svR(-) Tumor [3, 4]: 1.72 ± 0.30 %IA/g
- Biodistribution, Femur [3, 4]: 0.99 ± 0.17 %IA/g
- Biodistribution, Heart [3, 4]: 1.42 ± 0.21 %IA/g
- Biodistribution, Intestines [3, 4]: 9.48 ± 0.99 %IA/g
- Biodistribution, Kidneys [3, 4]: 21.90 ± 3.97 %IA/g
- Biodistribution, Liver [3, 4]: 4.56 ± 0.49 %IA/g
- Biodistribution, Muscle [3, 4]: 0.47 ± 0.04 %IA/g
- Biodistribution, Pancreas [3, 4]: 3.00 ± 0.58 %IA/g
- Biodistribution, Spleen [3, 4]: 1.32 ± 0.20 %IA/g
- Biodistribution, Stomach [3, 4]: 0.94 ± 0.15 %IA/g
- Biodistribution, Blood ([3]; 4 h pi): 6.40 ± 0.75 %IA/g
- Biodistribution, CCK2i4svR(+) Tumor ([3]; 4 h pi): 8.91 ± 1.59 %IA/g
- Biodistribution, CCK2i4svR(-) Tumor ([3]; 4 h pi): 1.82 ± 0.25 %IA/g
- Biodistribution, Femur ([3]; 4 h pi): 1.15 ± 0.10 %IA/g
- Biodistribution, Heart ([3]; 4 h pi): 1.61 ± 0.23 %IA/g
- Biodistribution, Intestines ([3]; 4 h pi): 9.71 ± 0.42 %IA/g
- Biodistribution, Kidneys ([3]; 4 h pi): 29.55 ± 3.64 %IA/g
- Biodistribution, Liver ([3]; 4 h pi): 5.42 ± 0.89 %IA/g
- Biodistribution, Lungs ([3]; 4 h pi): 3.27 ± 0.46 %IA/g
- Biodistribution, Muscle ([3]; 4 h pi): 0.56 ± 0.08 %IA/g
- Biodistribution, Pancreas ([3]; 4 h pi): 2.99 ± 0.96 %IA/g
- Biodistribution, Spleen ([3]; 4 h pi): 1.49 ± 0.14 %IA/g
- Biodistribution, Stomach ([3]; 4 h pi): 1.31 ± 0.21 %IA/g
- Biodistribution, Blood [3, 5]: 0.15 ± 0.02 %IA/g
- Biodistribution, CCK2i4svR(+) Tumor [3, 5]: 2.92 ± 0.37 %IA/g
- Biodistribution, CCK2i4svR(-) Tumor [3, 5]: 0.45 ± 0.09 %IA/g
- Biodistribution, Femur [3, 5]: 0.25 ± 0.03 %IA/g
- Biodistribution, Heart [3, 5]: 0.22 ± 0.03 %IA/g
- Biodistribution, Intestines [3, 5]: 0.75 ± 0.06 %IA/g
- Biodistribution, Kidneys [3, 5]: 11.51 ± 2.64 %IA/g
- Biodistribution, Liver [3, 5]: 0.95 ± 0.12 %IA/g
- Biodistribution, Lungs [3, 5]: 0.44 ± 0.07 %IA/g
- Biodistribution, Muscle [3, 5]: 0.08± 0.01 %IA/g
- Biodistribution, Pancreas [3, 5]: 0.30 ± 0.05 %IA/g
- Biodistribution, Spleen [3, 5]: 0.56 ± 0.17 %IA/g
- Biodistribution, Stomach [3, 5]: 0.35 ± 0.06 %IA/g
- Biodistribution, Blood ([3]; 24 h pi): 0.13 ± 0.02 %IA/g
- Biodistribution, CCK2i4svR(+) Tumor ([3]; 24 h pi): 2.78 ± 0.43 %IA/g
- Biodistribution, CCK2i4svR(-) Tumor ([3]; 24 h pi): 0.41 ± 0.10 %IA/g
- Biodistribution, Femur ([3]; 24 h pi): 0.24 ± 0.04 %IA/g
- Biodistribution, Heart ([3]; 24 h pi): 0.22 ± 0.01 %IA/g
- Biodistribution, Intestines ([3]; 24 h pi): 0.68 ± 0.15 %IA/g
- Biodistribution, Kidneys ([3]; 24 h pi): 10.16 ± 2.30 %IA/g
- Biodistribution, Liver ([3]; 24 h pi): 0.96 ± 0.22 %IA/g
- Biodistribution, Lungs ([3]; 24 h pi): 0.60 ± 0.37 %IA/g
- Biodistribution, Muscle ([3]; 24 h pi): 0.08 ± 0.01 %IA/g
- Biodistribution, Pancreas ([3]; 24 h pi): 0.29 ± 0.03 %IA/g
- Biodistribution, Spleen ([3]; 24 h pi): 0.51 ± 0.09 %IA/g
- Biodistribution, Stomach ([3]; 24 h pi): 0.36 ± 0.14 %IA/g
SMILES: CC(C)(C)C(=O)CN1C(=O)[C@H](NC(=O)Nc2cccc(C(=O)NCCOCCOCCOCCNC(=O)[C@@H](CCC(=O)O)NC(=O)CCC(C(=O)[O-])N3CCN(CC(=O)[O-])CCN(CC(=O)[O-])CC3)c2)CN(C2CCCCC2)c2ccccc21.[111In+3] (stereo partly drawn) [[^111In]In-GAS2]
- Intact radioligand in blood [2]: 73.1 ± 1.8% and 73.1 ± 1.8 (3) % and 98.3 ± 0.3 (3) %

Reference: article PMC8954547, “Nonpeptidic Z360-Analogs Tagged with Trivalent Radiometals as Anti-CCK2R Cancer Theranostic Agents: A Preclinical Study” (Pharmaceutics, 2022)
